Reference: article PMC9389255 (Heliyon, 2022)

Columns and labels:
[1] = system: α-Glucosidase from Saccharomyces cerevisiae; experiment: In vitro inhibition assay for α-glucosidase activity; assay type: biochemical
[2] = Precipitation of DMSO-dissolved compounds upon mixing in phosphate buffer; assay type: physicochemical
[3] = system: α-Glucosidase from Saccharomyces cerevisiae; experiment: Inhibitory kinetic analysis; assay type: biochemical; details: Lineweaver-Burk plots
[4] = printed in the column IC50 against α-amylase
[5] = printed in the column IC50 against α-glucosidase

Precipitated at (in vial) [2, 4] | Precipitated at (in vial) [2, 5] | inhibition pattern against α-glucosidase [3] | SMILES | also measured
Precipitated at 80 μM (in vial) | Precipitated at 80 μM (in vial) |  | O=c1c(O)c(-c2ccc(O)cc2)oc2cc(O)cc(O)c12 [Kaempferol] | inhibitory activity on α-glucosidase ([1]; at ≤80 μM): no inhibitory activity
Precipitated at 400 μM (in vial) | Precipitated at 400 μM (in vial) |  | O=c1cc(-c2ccccc2)oc2cc(O)cc(O)c12 [Chrysin] | inhibitory activity on α-glucosidase ([1]; at ≤400 μM): no inhibitory activity
 |  | competitive inhibition pattern | C[C@H]1O[C@H](O[C@H]2[C@H](O)[C@@H](O)[C@@H](O[C@H]3[C@H](O)[C@@H](O)C(O)O[C@@H]3CO)O[C@@H]2CO)[C@H](O)[C@@H](O)[C@@H]1N[C@H]1C=C(CO)[C@@H](O)[C@H](O)[C@H]1O (stereo partly shown) [Acarbose, reference compound] | 
 |  | mixed inhibition patterns | O=c1cc(-c2ccc(O)c(O)c2)oc2cc(O)cc(O)c12 [Luteolin] | 
Precipitated at 1000 μM (in vial) | Precipitated at 1000 μM (in vial) |  | O=c1cc(-c2ccc(O)cc2)oc2cc(O)cc(O)c12 [Apigenin] | inhibitory activity on α-glucosidase ([1]; at ≤1000 μM): no inhibitory activity
 |  | mixed inhibition patterns | O=c1c(O)c(-c2ccc(O)c(O)c2)oc2cc(O)cc(O)c12 [Quercetin] | 
 |  | mixed inhibition patterns | O=c1c(O)c(-c2cc(O)c(O)c(O)c2)oc2cc(O)cc(O)c12 [Myricetin] | 
